# Where two headings read alike, the source gives them in different places.
# What was measured:
# Type in all cases: in vivo
# [1] = system: Aedes aegypti mosquito; assay: USDA Petri Dish Method, 3 min exposure to treated glazed tile; details: glazed tile, 3 min exposure
# Procedure, shortened: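 USDA Petri Dish screen: groups of twenty female Aedes aegypti (4-6 days old) held 3 minutes on dried acetone-based treatments (with/without adjuvant), then transferred to untreated card. Replicated three or more times; knockdown followed over time, mortality recorded 24 hours post-exposure with sucrose-soaked cotton available.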
# [2] = system: Odorous House ant, Tapinoma sessile; assay: Knockdown/mortality of ant workers under continuous exposure on treated glazed tile; details: glazed tile
# Procedure, shortened: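 Each tile surface (about 5″×5″) was treated, left to dry overnight and tested in a minimum of three replicates.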
# [3] = system: Red Imported Fire ant (RIFA), Solenopsis invicta; assay: as above; details: glazed tile
# Source text: Treatments were allowed to dry overnight. […] Treatments were replicated minimum three times.
# Treatments were allowed to dry overnight. […] Treatments were replicated a minimum of three times.
# [4] = system: Blattella germanica (males, susceptible); assay: Efficacy of EC formulations on glazed/unglazed tiles, continuous exposure; details: EC formulation
# Method: All surfaces were provided with talcum-coated glass rings (diameter 9.5 cm, height 5.5 cm) one day later.
# The test insects were anesthetized with CO2, 20 individuals were placed onto the treated surfaces and the glass ring was covered with wire gauze ring. […]
# Each test consisted of at least one replicate and any additional replicates are noted. […]
# Test Insects: Culex quinquefasciatus (adults, susceptible) (3 minutes exposure time according to USDA Petri Dish Method), Musca domestica (adults, susceptible and resistant), Blattella germanica (males, susceptible) (both: continuous exposure time)
# Formulations: Insecticide with or without 10% Compound A (as EC), to be diluted with water (1 part formulation+9 parts water)
# Application: 1 ml of the diluted formulations was applied by pipette onto glazed tiles (15×15 cm)
# (§1) Evaluation: Knock down after 3, 9 (mosquitoes only), 15, and 30 minutes, 1, 2, 3, 4 and 24 hours (mortality)
# [5] = system: Cimex lectularius (adults); assay: Efficacy on glazed tiles (acetone solutions or EC formulations), continuous exposure; details: for mortality at 50 mg/m2: Cimex lectularius, read-out: % KD and Mortality
# Method: Test Insects: Culex quinquefasciatus (adults) (3 minutes exposure time according to USDA Petri Dish Method), Musca domestica (adults), susceptible and resistant strain, Blattella germanica (males), Cimex lectularius (adults) (all: continuous exposure time)
# Application: The EC formulation (diluted with water 1:9) were applied as 0.85 ml solutions onto glazed tiles (15 cm×15 cm)
# Evaluation: Knock down after 15, and 30 minutes, 1, 2, 3, 4, 6 and 24 hours (mortality)
# Test Insects: Culex quinquefasciatus (adults) (3 minutes exposure time according to USDA Petri Dish Method), Cimex lectularius (adults), Acheta domesticus (middle nymphs) (both: continuous exposure time)
# Application: The active ingredients were applied as 1 ml acetone solutions onto glazed tiles (15 cm×15 cm)
# as §1
# Test Insects: Culex quinquefasciatus (adults) (3 minutes exposure time according to USDA Petri Dish Method), Cimex lectularius (adults), (continuous exposure time)
# Test Insects: Cimex lectularius, Culex quinquefasciatus, Musca domestica (all adults, susceptible strains)
# Application: The active ingredients were applied as 1 ml acetone solutions onto glazed tiles (15 cm×15 cm), continuous exposure time
# [6] = Table 60, Red Imported Fire ant, continuous exposure
# [7] = Table 48, fipronil/adjuvant in acetone
# [8] = 30 min, Table 51, fipronil/adjuvant in acetone
# [9] = 60 min, Table 51, fipronil/adjuvant in acetone
# [10] = 2 hr, Table 51, fipronil/adjuvant in acetone
# [11] = Table 51, fipronil/adjuvant in acetone
# [12] = Table 52, fipronil/adjuvant in acetone
# [13] = 0.1% = 50 mg Bendiocarb/m^2 on glazed tiles
# [14] = 0.1% = 50 mg imidacloprid/m^2 on glazed tiles
smiles,measurement,setting,value
CC[S+]([O-])c1c(C#N)nn(-c2c(Cl)cc(C(F)(F)F)cc2Cl)c1N (stereo not drawn) [Ethiprole (1%)],Average % Knockdown & Mortality after 4 hr,"[1]; Table 56, Aedes aegypti",17%
same,Average % Knockdown & Mortality after 6 hr,"[1]; Table 56, Aedes aegypti",27%
same,Average % Knockdown & Mortality after 24 hr,"[1]; Table 56, Aedes aegypti",46%
same,Average % Knockdown & Mortality after 2 hr,"[1]; Table 56, Aedes aegypti, adjuvant = Compound A 1% + Compound B 0.5%, 2 hr",2%
same,Average % Knockdown & Mortality after 30 min,"[2]; Table 59, Odorous House ant, continuous exposure, 30 min",0%
same,Average % Knockdown & Mortality after 45 min,"[2]; Table 59, Odorous House ant, continuous exposure, 45 min",0%
same,Average % Knockdown & Mortality after 60 min,"[2]; Table 59, Odorous House ant, continuous exposure, 60 min",3%
same,Average % Knockdown & Mortality after 2 hr,"[2]; Table 59, Odorous House ant, continuous exposure, 2 hr",7%
same,Average % Knockdown & Mortality after 15 min,"[2]; Table 59, Odorous House ant, continuous exposure, adjuvant = Compound A 1% + Compound B 0.5%, 15 min",0%
same,Average % Mortality after 1 hr,"[3]; Table 60, Red Imported Fire ant, continuous exposure, 1 hr",0%
same,Average % Mortality after 1.5 hr,"[3]; Table 60, Red Imported Fire ant, continuous exposure, 1.5 hr",0%
same,Average % Mortality after 2 hr,[3]; [6],0%
same,Average % Mortality after 3 hr,[3]; [6],10%
same,Average % Mortality after 30 min,"[3]; Table 60, Red Imported Fire ant, continuous exposure, adjuvant = Compound A 1% + Compound B 0.5%",0%
N#Cc1nn(-c2c(Cl)cc(C(F)(F)F)cc2Cl)c(N)c1[S+]([O-])C(F)(F)F (stereo not drawn) [Fipronil (.001%)],Average % Knockdown & Mortality after 15 min,[1]; [7],0%
same,Average % Knockdown & Mortality after 30 min,[1]; [7],0%
same,Average % Knockdown & Mortality after 60 min,[1]; [7],0%
same,Average % Knockdown & Mortality after 4 hr,[1]; [7],0%
same,Average % Knockdown & Mortality after 6 hr,[1]; [7],3%
same,Average % Knockdown & Mortality after 24 hr,[1]; [7],3%
same,Average % Mortality after 30 min,[2]; [8],0%
same,Average % Mortality after 60 min,[2]; [9],0%
same,Average % Mortality after 2 hr,[2]; [10],0%
same,Average % Mortality after 24 hr,[2]; [11],100%
same,Average % Mortality after 30 min,[3]; [12],0%
same,Average % Mortality after 60 min,[3]; [12],0%
same,Average % Mortality after 2 hr,[3]; [12],0%
same,Average % Mortality after 3 hr,[3]; [12],25%
same,Average % Mortality after 24 hr,[3]; [12],100%
N#Cc1nn(-c2c(Cl)cc(C(F)(F)F)cc2Cl)c(N)c1[S+]([O-])C(F)(F)F (stereo not drawn) [Fipronil (.01%)],Average % Knockdown & Mortality after 15 min,[1]; [7],5%
same,Average % Knockdown & Mortality after 30 min,[1]; [7],6%
same,Average % Knockdown & Mortality after 60 min,[1]; [7],19%
same,Average % Knockdown & Mortality after 4 hr,[1]; [7],42%
same,Average % Knockdown & Mortality after 6 hr,[1]; [7],56%
same,Average % Knockdown & Mortality after 24 hr,[1]; [7],72%
same,Average % Mortality after 30 min,[2]; [8],0%
same,Average % Mortality after 60 min,[2]; [9],0%
same,Average % Mortality after 2 hr,[2]; [10],6%
same,Average % Mortality after 24 hr,[2]; [11],100%
same,Average % Mortality after 30 min,[3]; [12],0%
same,Average % Mortality after 60 min,[3]; [12],0%
same,Average % Mortality after 2 hr,[3]; [12],0%
same,Average % Mortality after 3 hr,[3]; [12],0%
same,Average % Mortality after 24 hr,[3]; [12],100%
CNC(=O)Oc1cccc2c1OC(C)(C)O2 [bendiocarb],toxicity / efficacy of the substance alone (summary in words),[2]; odorous house ant,no KD/mortality
same,% KD and Mortality 15′,[4]; [13],0%
same,% KD and Mortality 30′,[4]; [13],40%
same,% KD and Mortality 1 h,[4]; [13],60%
same,% KD and Mortality 2 h,[4]; [13],60%
same,% KD and Mortality 3 h,[4]; [13],80%
same,% KD and Mortality 4 h,[4]; [13],80%
same,% KD and Mortality 6 h,[4]; [13],80%
same,% KD and Mortality 24 h,[4]; [13],80%
same,% KD and Mortality,"[5]; 30′, on tiles, insecticide alone (imidacloprid 50 mg/m^2, Bendiocarb 50 mg/m^2, Ethiprole 10 mg/m^2, DTM 1 mg/m^2), no Compound A",100%
same,mortality at 50 mg/m2,[5]; 1 h,100%
same,mortality at 50 mg/m2,[5]; 2 h,100%
same,mortality at 50 mg/m2,[5]; 3 h,100%
same,mortality at 50 mg/m2,[5]; 4 h,100%
same,mortality at 50 mg/m2,[5]; 6 h,100%
same,mortality at 50 mg/m2,[5]; 24 h,100%
same,mortality at 50 mg/m2,[5],100%
CC1(C)[C@H](C(=O)O[C@H](C#N)c2cccc(Oc3ccccc3)c2)[C@@H]1C=C(Br)Br [deltamethrin (1%)],Average % Mortality after 20 min,"[2]; 20 min, Table 30, aqueous deltamethrin/adjuvant",43%
same,Average % Mortality after 60 min,"[2]; 60 min, Table 30, aqueous deltamethrin/adjuvant",80%
same,Average % Mortality after 90 min,"[2]; 90 min, Table 30, aqueous deltamethrin/adjuvant",90%
same,Average % Mortality after 2 hr,"[2]; 2 hr, Table 30, aqueous deltamethrin/adjuvant",93%
same,Average % Mortality after 10 min,"[3]; 10 min, Table 31, aqueous deltamethrin/adjuvant",37%
same,Average % Mortality after 20 min,"[3]; 20 min, Table 31, aqueous deltamethrin/adjuvant",100%
same,Average % Mortality after 40 min,"[3]; 40 min, Table 31, aqueous deltamethrin/adjuvant",100%
same,Average % Mortality after 60 min,"[3]; Table 31, aqueous deltamethrin/adjuvant",100%
O=[N+]([O-])NC1=NCCN1Cc1ccc(Cl)nc1 [imidacloprid],% KD and Mortality 15′,[4]; [14],0%
same,% KD and Mortality 30′,[4]; [14],0%
same,% KD and Mortality 1 h,[4]; [14],20%
same,% KD and Mortality 2 h,[4]; [14],80%
same,% KD and Mortality 3 h,[4]; [14],100%
same,% KD and Mortality 4 h,[4]; [14],100%
same,% KD and Mortality 6 h,[4]; [14],100%
same,% KD and Mortality 24 h,[4]; [14],100%
same,mortality at 50 mg/m2,"[5]; 15′, on tiles, insecticide alone (imidacloprid 50 mg/m^2, Bendiocarb 50 mg/m^2, Ethiprole 10 mg/m^2, DTM 1 mg/m^2), no Compound A",100%
same,mortality at 50 mg/m2,"[5]; 1 h, on tiles, insecticide alone (imidacloprid 50 mg/m^2, Bendiocarb 50 mg/m^2, Ethiprole 10 mg/m^2, DTM 1 mg/m^2), no Compound A",100%
same,mortality at 50 mg/m2,"[5]; 2 h, on tiles, insecticide alone (imidacloprid 50 mg/m^2, Bendiocarb 50 mg/m^2, Ethiprole 10 mg/m^2, DTM 1 mg/m^2), no Compound A",100%
same,mortality at 50 mg/m2,"[5]; 3 h, on tiles, insecticide alone (imidacloprid 50 mg/m^2, Bendiocarb 50 mg/m^2, Ethiprole 10 mg/m^2, DTM 1 mg/m^2), no Compound A",100%
same,mortality at 50 mg/m2,"[5]; 4 h, on tiles, insecticide alone (imidacloprid 50 mg/m^2, Bendiocarb 50 mg/m^2, Ethiprole 10 mg/m^2, DTM 1 mg/m^2), no Compound A",100%
same,mortality at 50 mg/m2,"[5]; 6 h, on tiles, insecticide alone (imidacloprid 50 mg/m^2, Bendiocarb 50 mg/m^2, Ethiprole 10 mg/m^2, DTM 1 mg/m^2), no Compound A",100%
same,mortality at 50 mg/m2,"[5]; 24 h, on tiles, insecticide alone (imidacloprid 50 mg/m^2, Bendiocarb 50 mg/m^2, Ethiprole 10 mg/m^2, DTM 1 mg/m^2), no Compound A",100%

# From patent US9028856B2, “Synergistic pesticide compositions” (priority 2008, dated 2015)
